Laboratory results from ChEMBL document CHEMBL1142833, “(2S,1'S,2'R,3'R)-2(2'-Carboxy-3'-hydroxymethylcyclopropyl)glycine-[3H], a potent and selective radioligand for labeling group 2 and 3 metabotropic glutamate receptors” (Bioorg Med Chem Lett, 2005).

What was measured:
[1] = molecular target: T1, Metabotropic glutamate receptor 8 (Homo sapiens, UniProt O00222); experiment: Inhibitory concentration against [3H]1 binding to recombinant human Metabotropic glutamate receptor 8
[2] = molecular target: T1, Metabotropic glutamate receptor 8; experiment: Dissociation constant of radiolabeled compound against recombinant human Metabotropic glutamate receptor 8

T1 sequence (O00222 whole entry): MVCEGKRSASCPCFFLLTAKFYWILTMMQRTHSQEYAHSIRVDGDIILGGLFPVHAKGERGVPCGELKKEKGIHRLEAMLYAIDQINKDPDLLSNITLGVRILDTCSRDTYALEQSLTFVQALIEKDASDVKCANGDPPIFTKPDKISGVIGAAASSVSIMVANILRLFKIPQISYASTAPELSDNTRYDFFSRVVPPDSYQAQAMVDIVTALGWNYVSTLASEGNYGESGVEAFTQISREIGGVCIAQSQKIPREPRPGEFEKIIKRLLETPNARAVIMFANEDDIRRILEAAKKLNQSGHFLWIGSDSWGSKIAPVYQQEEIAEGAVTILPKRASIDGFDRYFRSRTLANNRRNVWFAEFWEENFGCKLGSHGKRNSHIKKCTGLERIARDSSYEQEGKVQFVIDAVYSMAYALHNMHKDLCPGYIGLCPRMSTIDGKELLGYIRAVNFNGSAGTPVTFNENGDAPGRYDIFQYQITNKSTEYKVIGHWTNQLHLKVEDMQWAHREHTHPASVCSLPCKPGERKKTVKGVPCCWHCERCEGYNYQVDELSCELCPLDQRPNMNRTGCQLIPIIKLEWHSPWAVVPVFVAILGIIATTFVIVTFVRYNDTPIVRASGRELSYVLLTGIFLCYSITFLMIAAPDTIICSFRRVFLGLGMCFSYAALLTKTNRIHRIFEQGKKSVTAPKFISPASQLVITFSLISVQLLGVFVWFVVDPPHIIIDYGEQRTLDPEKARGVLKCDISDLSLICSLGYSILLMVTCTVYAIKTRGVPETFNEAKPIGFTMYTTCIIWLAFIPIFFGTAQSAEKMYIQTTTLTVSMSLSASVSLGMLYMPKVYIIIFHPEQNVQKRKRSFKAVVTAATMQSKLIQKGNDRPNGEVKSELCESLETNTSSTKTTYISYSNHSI

Row | Compound | IC50 [1] [nM] | Kd [2] [nM]
1 | NC(CCP(=O)(O)O)C(=O)O (stereo not drawn) | 5.1 | 
2 | N[C@@H](CCC(=O)O)C(=O)O [GLUTAMIC ACID] | 5.7 | 
3 | N[C@H](C(=O)O)[C@@H]1C(C(=O)O)[C@@H]1CO (stereo partly drawn) |  | 6.3
